For experiment [1], the system named is L6-myotubes. In words: Glucose uptake (3H-2-deoxyglucose) in differentiated L6-myotubes, compared to isoproterenol. It counts as cell-based. Conditions: compound at 10 μM vs isoproterenol at 10 μM, read-out: Biological example 1: glucose uptake activity compared to that of isoproterenol. An outline of the steps: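 Differentiated L6 myotubes, serum-starved overnight in 0.5% fatty-acid-free BSA, were pretreated 1 h 40 min with agonist at 1×10^−5 M final, then re-dosed in glucose-free medium for 20 min. Uptake of 50 nM 3H-2-deoxyglucose over 10 min was read by scintillation counting and compared with isoproterenol.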

The subject of experiment [2] is L6-myotubes. The experiment in a line: Measurement of intracellular cAMP levels (alpha screen cAMP kit) in differentiated cells, compared to isoproterenol. The class given is cell-based. Conditions: 0.25 h, compound at 10 μM vs isoproterenol at 10 μM, 15 min stimulation, read-out: Biological example 2: intracellular cAMP level activity compared to that of isoproterenol. An outline of the steps:
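Rat L6 myoblasts differentiated to myotubes over 7 days in 2% FBS, serum-starved overnight, then stimulated 15 min with agonist at 1×10^−5 M final in HBSS with 1 mM IBMX, pH 7.4. cAMP measured by AlphaScreen after ethanol extraction and lysis; activity expressed relative to isoproterenol.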

SMILES strings stand for the structures. Where a name gives a salt, the structure may show the parent alone.

For `CC(=O)N1CC[C@H](CC(C)(C)NC[C@H](O)c2cncc(F)c2)C1` [Example 62, 1-((R)-3-(2-(((R)-2-(5-Fluoropyridin-3-yl)-2-hydroxyethyl)amino)-2-methylpropyl)pyrrolidin-1-yl)ethan-1-one], the Emax at 10 µM in experiment [1] was > 75%; in experiment [2] it was < 25%.
Turning to `CC(C)(C[C@H]1CCN(S(C)(=O)=O)C1)NC[C@H](O)c1cncc(F)c1` [Example 63, (R)-1-(5-Fluoropyridin-3-yl)-2-((2-methyl-1-((R)-1-(methylsulfonyl)-pyrrolidin-3-yl)propan-2-yl)amino)ethan-1-ol], the results for the Emax at 10 µM in experiment [1] and in experiment [2] were > 75% and < 25%, respectively.
For the molecule `CC(C)(C[C@@H]1CCN(C(=O)OC(C)(C)C)C1)NC[C@H](O)c1cccc(F)c1` [Example 64, tert-Butyl (S)-3-(2-(((R)-2-(3-fluorophenyl)-2-hydroxyethyl)amino)-2-methylpropyl)pyrrolidine-1-carboxylate], the Emax at 10 µM in experiment [1] was 50 to 75%; in experiment [2], > 75%.
Take `CC(C)(C[C@@H]1CCNC1)NC[C@H](O)c1cccc(F)c1` [Example 65, (R)-1-(3-Fluorophenyl)-2-((2-methyl-1-((S)-pyrrolidin-3-yl)propan-2-yl)amino)ethan-1-ol]: the Emax at 10 µM in experiment [1] and in experiment [2] was > 75% throughout.
Take `CC(=O)N1CC[C@@H](CC(C)(C)NC[C@H](O)c2cccc(F)c2)C1` [Example 66, 1-((S)-3-(2-(((R)-2-(3-Fluorophenyl)-2-hydroxyethyl)amino)-2-methylpropyl)pyrrolidin-1-yl)ethan-1-one]: the Emax at 10 µM in experiment [1] was > 75%; in experiment [2], 25 to 50%.
On the same counts, the results for `CC(C)(C[C@@H]1CCN(S(C)(=O)=O)C1)NC[C@H](O)c1cccc(F)c1` [Example 67, (R)-1-(3-Fluorophenyl)-2-((2-methyl-1-((S)-1-(methylsulfonyl)-pyrrolidin-3-yl)propan-2-yl)amino)ethan-1-ol] are > 75% and < 25%.
Taken in the same sequence, the figures for `CC(C)(C[C@@H]1CCN(C(=O)OC(C)(C)C)C1)NC[C@H](O)c1cncc(F)c1` [Example 68, tert-Butyl (S)-3-(2-(((R)-2-(5-fluoropyridin-3-yl)-2-hydroxyethyl)-amino)-2-methylpropyl)pyrrolidine-1-carboxylate] were > 75% and 25 to 50%.
On the same counts, the results for `CC(C)(C[C@@H]1CCNC1)NC[C@H](O)c1cncc(F)c1` [Example 69, (R)-1-(5-Fluoropyridin-3-yl)-2-((2-methyl-1-((S)-pyrrolidin-3-yl)-propan-2-yl)amino)ethan-1-ol] are > 75% and < 25%.
`CC(=O)N1CC[C@@H](CC(C)(C)NC[C@H](O)c2cncc(F)c2)C1` [Example 70, 1-((S)-3-(2-(((R)-2-(5-Fluoropyridin-3-yl)-2-hydroxyethyl)amino)-2-methylpropyl)pyrrolidin-1-yl)ethan-1-one]: the Emax at 10 µM is > 75% in experiment [1] and < 25% in experiment [2].
In the case of `CC(C)(C[C@@H]1CCN(S(C)(=O)=O)C1)NC[C@H](O)c1cncc(F)c1` [Example 71, (R)-1-(5-Fluoropyridin-3-yl)-2-((2-methyl-1-((S)-1-(methylsulfonyl)-pyrrolidin-3-yl)propan-2-yl)amino)ethan-1-ol], the results for the Emax at 10 µM in experiment [1] and in experiment [2] were > 75% and < 25%, respectively.
In the case of `CC(C)(C[C@@H]1CNC(=O)C1)NC[C@H](O)c1cccc(F)c1` [Example 72, (S)-4-(2-(((R)-2-(3-Fluorophenyl)-2-hydroxyethyl)amino)-2-methyl-propyl)pyrrolidin-2-one hydrochloride], the Emax at 10 µM is > 75% in experiment [1] and 50 to 75% in experiment [2].
On the same counts, the results for `CC(C)(C[C@H]1CCNC1=O)NC[C@H](O)c1cccc(F)c1` [Example 73, (R)-3-(2-(((R)-2-(3-Fluorophenyl)-2-hydroxyethyl)amino)-2-methyl-propyl)pyrrolidin-2-one hydrochloride] are > 75% and < 25%.
Taken in the same sequence, the figures for `CC(C)(C[C@@H]1CNC(=O)C1)NC[C@H](O)c1cncc(F)c1` [Example 74, (S)-4-(2-(((R)-2-(5-Fluoropyridin-3-yl)-2-hydroxyethyl)amino)-2-methylpropyl)pyrrolidin-2-one dihydrochloride] were > 75% and 25 to 50%.
On to `CC(C)(C[C@H]1CCNC1=O)NC[C@H](O)c1cncc(F)c1` [Example 75, (R)-3-(2-(((R)-2-(5-Fluoropyridin-3-yl)-2-hydroxyethyl)amino)-2-methylpropyl)pyrrolidin-2-one dihydrochloride], for which the Emax at 10 µM in experiment [1] is 25 to 50%; in experiment [2] it was < 25%.
Regarding `CC(C)(C[C@H]1CNC(=O)C1)NC[C@H](O)c1cccc(F)c1` [Example 76, (R)-4-(2-(((R)-2-(3-Fluorophenyl)-2-hydroxyethyl)amino)-2-methyl-propyl)pyrrolidin-2-one hydrochloride], the values for the Emax at 10 µM in experiment [1] and in experiment [2] were > 75% and < 25%, respectively.
On the same counts, the results for `CC(C)(C[C@@H]1CCNC1=O)NC[C@H](O)c1cccc(F)c1` [Example 77, (S)-3-(2-(((R)-2-(3-Fluorophenyl)-2-hydroxyethyl)amino)-2-methyl-propyl)pyrrolidin-2-one hydrochloride] are 50 to 75% and < 25%.
As to `CC(C)(C[C@H]1CNC(=O)C1)NC[C@H](O)c1cncc(F)c1` [Example 78, (R)-4-(2-(((R)-2-(5-Fluoropyridin-3-yl)-2-hydroxyethyl)amino)-2-methylpropyl)pyrrolidin-2-one dihydrochloride], the Emax at 10 µM in experiment [1] is > 75%; in experiment [2] it was < 25%.
Taken in the same sequence, the figures for `CC(C)(CC1CCOCC1)NC[C@H](O)c1cccc(F)c1` [Example 80, (R)-1-(3-Fluorophenyl)-2-((2-methyl-1-(tetrahydro-2H-pyran-4-yl)-propan-2-yl)amino)ethan-1-ol] were > 75% and < 25%.
Taken in the same sequence, the figures for `CC(C)(C[C@H]1CCCCO1)NC[C@H](O)c1cccc(F)c1` [Example 81, (R)-1-(3-Fluorophenyl)-2-((2-methyl-1-((R)-tetrahydro-2H-pyran-2-yl)propan-2-yl)amino)ethan-1-ol] were > 75% and 25 to 50%.
Taken in the same sequence, the figures for `CC(C)(C[C@@H]1CCCCO1)NC[C@H](O)c1cccc(F)c1` [Example 82, (R)-1-(3-Fluorophenyl)-2-((2-methyl-1-((S)-tetrahydro-2H-pyran-2-yl)propan-2-yl)amino)ethan-1-ol] were > 75% and < 25%.
Take `CC(C)(C[C@H]1CCCOC1)NC[C@H](O)c1cccc(F)c1` [Example 83, (R)-1-(3-Fluorophenyl)-2-((2-methyl-1-((R)-tetrahydro-2H-pyran-3-yl)propan-2-yl)amino)ethan-1-ol]: the Emax at 10 µM in experiment [1] was > 75%; in experiment [2] it was < 25%.
On the same counts, the results for `CC(C)(C[C@@H]1CCCOC1)NC[C@H](O)c1cccc(F)c1` [Example 84, (R)-1-(3-Fluorophenyl)-2-((2-methyl-1-((S)-tetrahydro-2H-pyran-3-yl)propan-2-yl)amino)ethan-1-ol] are > 75% and 50 to 75%.
Taken in the same sequence, the figures for `COC1CCN(CC(C)(C)NC[C@H](O)c2cccc(F)c2)CC1` [Example 85, (R)-1-(3-Fluorophenyl)-2-((1-(4-methoxypiperidin-1-yl)-2-methyl-propan-2-yl)amino)ethan-1-ol dihydrochloride] were > 75% and < 25%.
For `CC(=O)N1CCN(CC(C)(C)NC[C@H](O)c2cccc(F)c2)CC1` [Example 86, (R)-1-(4-(2-((2-(3-Fluorophenyl)-2-hydroxyethyl)amino)-2-methyl-propyl)piperazin-1-yl)ethan-1-one dihydrochloride], the Emax at 10 µM in experiment [1] was > 75%; in experiment [2], < 25%.

(Values after US20260242335A1, “HETEROCYCLOALKYL BETA-HYDROXY ALKYL AMINES FOR USE IN THE TREATMENT OF HYPERGLYCAEMIA AND DISORDERS CHARACTERISED BY HYPERGLYCAEMIA” (ATROGI AB, priority 2023, published 2026).)
